# Laboratory results taken from ChEMBL document CHEMBL1201862, “PubChem BioAssay data set” (2004).
# Activity calls are given as the source filed them.
# How the values were obtained:
# Cytochrome P450 3A4 = Cytochrome P450 3A4 (Homo sapiens, UniProt P08684); conditions: Potency;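 further: confirmatory qHTS run detecting inhibitors and substrates of CYP3A4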
# [1] = Trypanosoma cruzi growth suppression in host cells – NIH3T3 host cells, beta-gal luminescence, confirmation (AID 2044); format: functional, cell-based;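 further: intracellular parasites grown in NIH/3T3 mouse fibroblasts as host cells; luminescent beta-galactosidase reporter signal from transgenic T. cruzi replicating inside host cells; inhibitors lower the luminescence signal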
# [2] = NIH3T3 cell viability loss – ATP luminescence, mouse fibroblasts, counter-screen, dose response (AID 2010); format: functional, cell-based;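 further: cells exposed to compound for about 90 hours before reading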
# [3] = biological target: T1, High affinity choline transporter 1 (Homo sapiens, UniProt Q9GZV3); assay: human choline transporter blockers, potency – cell-based, 5-point CRC, membrane potential dye, dose response (AID 504840); format: functional
# T1 sequence (Q9GZV3 whole entry): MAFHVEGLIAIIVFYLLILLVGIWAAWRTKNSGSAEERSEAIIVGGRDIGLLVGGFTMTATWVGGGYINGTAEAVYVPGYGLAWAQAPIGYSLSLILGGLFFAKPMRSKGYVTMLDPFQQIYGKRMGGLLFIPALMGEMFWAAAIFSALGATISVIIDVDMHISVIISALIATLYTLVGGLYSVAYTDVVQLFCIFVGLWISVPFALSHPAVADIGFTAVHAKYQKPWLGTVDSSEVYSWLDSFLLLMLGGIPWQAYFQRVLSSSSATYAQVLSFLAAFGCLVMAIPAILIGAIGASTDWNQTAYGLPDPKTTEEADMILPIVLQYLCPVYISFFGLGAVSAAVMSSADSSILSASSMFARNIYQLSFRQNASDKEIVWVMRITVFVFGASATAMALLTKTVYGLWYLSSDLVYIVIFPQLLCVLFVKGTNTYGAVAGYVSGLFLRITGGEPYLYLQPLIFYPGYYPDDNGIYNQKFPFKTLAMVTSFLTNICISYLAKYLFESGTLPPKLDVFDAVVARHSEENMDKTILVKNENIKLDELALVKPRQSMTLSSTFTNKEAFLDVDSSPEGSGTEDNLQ
# [4] = NIH-3T3 fibroblast cytotoxicity, dose response, cytotoxicity control, cell-based, fluorescence, Alamar Blue, secondary assay (AID 2327); format: functional;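 further: NIH-3T3 mouse fibroblasts cultured with fluconazole at 8 µg/mL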
# [5] = fluconazole-exposed Candida albicans growth modulators – fluorescence, retest, confirmation (AID 2467); format: functional, cell-based
# [6] = biological target: T2, Carboxy-terminal domain RNA polymerase II polypeptide A small phosphatase 1 (Homo sapiens, UniProt Q9GZU7); assay: CTDSP1 inhibitors, concentration-response, biochemical, absorbance readout, ultra-high-throughput screen actives (AID 540297); format: functional
# T2 sequence (Q9GZU7 whole entry): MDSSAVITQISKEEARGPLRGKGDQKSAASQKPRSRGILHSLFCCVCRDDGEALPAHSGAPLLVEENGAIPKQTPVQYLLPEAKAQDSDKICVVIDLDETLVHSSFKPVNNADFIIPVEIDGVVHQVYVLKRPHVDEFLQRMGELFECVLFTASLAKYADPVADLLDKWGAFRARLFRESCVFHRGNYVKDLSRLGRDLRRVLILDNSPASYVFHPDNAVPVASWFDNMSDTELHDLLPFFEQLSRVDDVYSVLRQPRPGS
# [7] = Luminescence Cell-Based Dose Confirmation HTS to Identify Activators of 5'UTR Stem-Loop Driven Alpha-Synuclein mRNA Translation in H4 Neuroglioblastoma Cells. [Related pubchem assays: 1829 (Project Summary), 1814 (Primary HTS)]; format: functional
# [8] = Luminescence Cell-Based Dose Response HTS to Identify Activators of Luciferase Translation or Activity in H4 […] Cells. [Related pubchem assays: 1829 (Project Summary), 1814 (Primary HTS)]; format: functional
# H4 = assay: Luminescence Cell-Based Dose Response HTS to Identify Activators of 5'UTR Stem-Loop Driven Prion Protein mRNA Translation in H4 Neuroglioblastoma Cells. [Related pubchem assays: 1829 (Project Summary), 1814 (Primary HTS)]; format: functional; conditions: Homo sapiens
# Paired box protein Pax-8 = Paired box protein Pax-8 (Homo sapiens, UniProt Q06710); assay: PAX8 transcriptional activity inhibition in RMG-I – RMG-I cells, luciferase, cherry-pick, dose response (AID 687027); format: functional, cell-based;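 further: luciferase reporter driven by Pax8 target thyroperoxidase promoter measured by SteadyGlo luminescence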
# Chain of Paired box protein Pax-8 (Q06710 whole entry): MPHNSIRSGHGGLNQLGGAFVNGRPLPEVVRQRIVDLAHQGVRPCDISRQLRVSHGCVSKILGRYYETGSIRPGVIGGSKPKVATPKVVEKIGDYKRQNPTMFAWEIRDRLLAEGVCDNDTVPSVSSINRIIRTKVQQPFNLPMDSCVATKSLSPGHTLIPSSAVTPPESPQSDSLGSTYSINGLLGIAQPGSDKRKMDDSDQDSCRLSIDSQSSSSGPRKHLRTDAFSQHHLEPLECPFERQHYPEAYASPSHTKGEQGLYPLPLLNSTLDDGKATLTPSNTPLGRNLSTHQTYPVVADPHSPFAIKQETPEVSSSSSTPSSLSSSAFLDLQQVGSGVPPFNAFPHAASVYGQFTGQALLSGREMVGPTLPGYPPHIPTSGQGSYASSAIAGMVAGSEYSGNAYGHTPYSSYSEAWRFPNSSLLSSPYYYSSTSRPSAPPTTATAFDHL
# [9] = OVCAR-3 cell viability loss – plate reader, dry powder samples, PAX8 inhibitor project, dose response (AID 743044); format: functional, cell-based
# [10] = OVCAR8 cell viability loss – plate reader, dry powder samples, PAX8 project, dose response (AID 743197); format: functional, cell-based; conditions: OVCAR-8
# [11] = luciferase reporter signal suppression in cells – H4 neuroglioma cells, luminescence, dose response (AID 1990); format: functional, cell-based
# BJ [12] = assay: BJ-TERT fibroblast viability loss – cell-based, RAS-independent, luminescence, dose response (AID 1933); format: functional; conditions: Homo sapiens
# [13] = Luminescence Cell-Based Dose Response HTS to Identify Inhibitors of 5'UTR Stem-Loop Driven Prion Protein mRNA Translation in H4 Neuroglioblastoma Cells. [Related pubchem assays: 1827 (Project Summary), 1813 (Primary HTS)]; format: functional
# [14] = alpha-synuclein stem-loop luciferase translation blockers – H4 neuroglioma cells, luminescence, confirmation (AID 1988); format: functional, cell-based
# BJ [15] = assay: cells; format: functional, cell-based; conditions: Homo sapiens
# BJ [16] = assay: BJ-TERT-LT-ST fibroblast viability loss – cell-based, RAS-independent, luminescence, dose response (AID 1935); format: functional; conditions: Homo sapiens;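 further: BJ fibroblasts immortalized with TERT plus LT and ST oncogenes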
# [17] = DRD fibroblast viability loss – cell-based, non-viral oncogenic, luminescence, dose response (AID 1934); format: functional; conditions: Homo sapiens
# Nonstructural protein 1 = Nonstructural protein 1 (Influenza A virus, UniProt Q194T2); format: functional, Influenza A virus (A/California/07/2009(H1N1))
# Chain of Nonstructural protein 1 (Q194T2 whole entry): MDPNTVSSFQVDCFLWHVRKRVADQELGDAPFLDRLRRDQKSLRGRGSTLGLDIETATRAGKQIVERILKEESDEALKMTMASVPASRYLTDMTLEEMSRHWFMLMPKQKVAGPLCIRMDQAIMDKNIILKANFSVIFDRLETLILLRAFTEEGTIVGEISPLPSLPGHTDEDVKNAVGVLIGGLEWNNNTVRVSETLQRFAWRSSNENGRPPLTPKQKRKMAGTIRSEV
# [18] = THP-1 cell cytotoxicity, dose response, cytotoxicity control for non-replicating M. tuberculosis project (AID 489025); format: functional
# cells = format: functional
# [19] = tested on: Streptococcus sp. 'group A'; assay: Streptococcus pyogenes SK(-)GAS viability under kanamycin – luminescence, BacTiterGlo, confirmation, counter-screen for streptokinase expression inhibitor project, dose response (AID 1900); format: functional, organism-based
# Streptokinase A = biological target: T3, Streptokinase A (Streptococcus pyogenes serotype M1, UniProt P10520); assay: viability-normalized secreted streptokinase activity reduction – plasminogen activation absorbance, OD405, dose response (AID 1914); format: functional, Streptococcus pyogenes M1 GAS;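 further: secreted streptokinase activity via plasminogen activation per viability signal from cell pellet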
# T3 sequence (P10520 whole entry): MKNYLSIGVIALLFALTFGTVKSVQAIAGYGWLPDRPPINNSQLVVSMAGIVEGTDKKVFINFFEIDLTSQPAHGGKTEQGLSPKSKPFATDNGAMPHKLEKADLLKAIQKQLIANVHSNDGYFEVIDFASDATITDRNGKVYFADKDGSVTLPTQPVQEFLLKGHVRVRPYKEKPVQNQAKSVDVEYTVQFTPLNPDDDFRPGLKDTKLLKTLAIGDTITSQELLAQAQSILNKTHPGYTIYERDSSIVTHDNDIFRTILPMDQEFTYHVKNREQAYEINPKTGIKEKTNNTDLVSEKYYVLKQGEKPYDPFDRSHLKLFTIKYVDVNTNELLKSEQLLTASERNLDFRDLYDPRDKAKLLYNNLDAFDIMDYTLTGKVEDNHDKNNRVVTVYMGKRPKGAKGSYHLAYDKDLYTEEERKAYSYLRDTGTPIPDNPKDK
# Streptococcus = assay: GAS UMAA2166 growth inhibition – luminescence, BacTiterGlo, counter-screen for streptokinase expression inhibitor project, dose response (AID 1915); format: functional, organism-based;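 further: potency for reduction of bacterial viability or growth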
# H9c2 = assay: cells; format: functional, cell-based; conditions: Rattus norvegicus, H9c2, Myocardium;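 further: confirmatory concentration-response retest of ultra-high-throughput screening hits for modulation of myocardial damage; cell death induced by hydrogen peroxide oxidative stress; compound pretreatment for 60 min then peroxide exposure for 2 h; potency is for protecting the cells against peroxide damage rather than for killing them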
# Chain of Cytochrome P450 3A4 (P08684 whole entry): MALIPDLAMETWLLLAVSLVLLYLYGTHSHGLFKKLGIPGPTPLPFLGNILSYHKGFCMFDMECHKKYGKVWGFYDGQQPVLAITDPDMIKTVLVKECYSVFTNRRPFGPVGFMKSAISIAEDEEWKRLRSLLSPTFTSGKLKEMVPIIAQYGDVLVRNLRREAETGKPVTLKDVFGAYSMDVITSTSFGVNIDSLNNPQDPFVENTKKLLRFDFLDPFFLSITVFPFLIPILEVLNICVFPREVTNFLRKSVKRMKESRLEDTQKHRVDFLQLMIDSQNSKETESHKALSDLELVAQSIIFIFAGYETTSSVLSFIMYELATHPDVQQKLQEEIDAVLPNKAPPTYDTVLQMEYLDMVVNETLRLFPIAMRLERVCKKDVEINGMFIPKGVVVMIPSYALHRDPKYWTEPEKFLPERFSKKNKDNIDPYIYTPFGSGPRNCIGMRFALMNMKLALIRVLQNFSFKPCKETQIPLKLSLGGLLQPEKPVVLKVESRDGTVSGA
compound,measurement,setting,value
COc1c(CC=C(C)C)c2c(c3oc(=O)c(-c4ccc(O)cc4)c(O)c13)C=CC(C)(C)O2 [SCANDENIN],AC50,Cytochrome P450 3A4,20 µM (inconclusive)
CN(/N=C/c1ccc([N+](=O)[O-])o1)c1ccccc1,EC50,[1],0.665 µM (active)
same,EC50,[2],> 60 µM (not active)
same,IC50,[3],12.9 µM (active)
Nc1c(C(=O)OC2CCCCC2)c2nc3ccccc3nc2n1CC1CCCO1 (configuration not stated),IC50,[3],13.2 µM (active)
O=C(O)CCCCCN1C(=O)/C(=C/c2nc3ccccc3[nH]2)SC1=S,EC50,[4],> 150 µM (inactive)
same,EC50,[5],5.71 µM (active)
same,IC50,[6],6.09 µM (active)
NC1=C(c2nc3ccccc3s2)C(=O)CN1Cc1ccccc1,EC50,[7],> 120 µM (not active)
same,EC50,[8],92 µM (active)
same,EC50,H4,> 120 µM (not active)
COc1ccc2c3c([nH]c2c1)[C@H](CO)N(C(=O)Nc1cccc(F)c1)CC31CCN(S(=O)(=O)c2cccc(C)c2)CC1,AC50,Paired box protein Pax-8,5.2 µM (active)
same,AC50,[9],42.4 µM (active)
same,AC50,[10],> 70 µM (inactive)
CCC(Oc1ccc2c(c1)C(=O)CC(C)(C)O2)C(=O)NCCN1CCCCCC1 (configuration not stated),IC50,[3],15.8 µM (active)
Cc1ccc(-c2csc(C3=C(N)N(NC(=O)c4ccco4)CC3=O)n2)cc1,IC50,[6],12.9 µM (active)
Cc1c(CCC(=O)O)c(=O)oc2cc(OCc3ccccc3Br)ccc12,IC50,[6],10.6 µM (active)
CCN(CC)CCCn1c2c(c(SCC(=O)N3CCc4ccccc43)nc1=O)CCC2,IC50,[3],10.9 µM (active)
CC(=O)N1[C@H](C)C=C[C@]1(Cc1ccccc1)C(=O)NCc1ccccn1,AC50,Cytochrome P450 3A4,12.6 µM (inconclusive)
O=C(NC(=S)NNC(=O)c1cnccn1)c1ccc(Cl)cc1,EC50,[4],5.78 µM (active)
same,EC50,[11],11.9 µM (active)
same,EC50,BJ [12],22.8 µM (active)
same,EC50,[13],9.78 µM (active)
same,EC50,[14],9.3 µM (active)
same,EC50,BJ [15],> 150 µM (not active)
same,EC50,[5],1.69 µM (active)
same,EC50,BJ [16],> 150 µM (not active)
same,EC50,[17],25.5 µM (active)
same,IC50,Nonstructural protein 1,3.01 µM (active)
CCS(=O)(=O)C1=NN2C(=N)/C(=C\c3ccc(OS(=O)(=O)c4ccccc4)cc3)C(=O)N=C2S1,IC50,[3],6.95 µM (active)
Clc1ccc(OCCOCCN2CCc3ccccc3C2)c(Cl)c1,CC50,[18],> 40 µM (active)
same,IC50,cells,18.6 µM (active)
C[C@@H]1CN([C@H](C)CO)C(=O)c2cc(NC(=O)Nc3ccc(C(F)(F)F)cc3)ccc2O[C@@H](C)CCCCO[C@H]1CN(C)S(=O)(=O)c1ccccc1,AC50,Paired box protein Pax-8,2.23 µM (active)
same,AC50,[9],31.8 µM (active)
C[C@H](CO)N1C[C@H](C)[C@H](CN(C)Cc2ccc(C(F)(F)F)cc2)OCCCC[C@H](C)Oc2ccc(NC(=O)NC3CCCCC3)cc2C1=O,AC50,Paired box protein Pax-8,10.1 µM (active)
same,AC50,[9],41.6 µM (active)
same,AC50,[10],41.7 µM (active)
Cc1ccc([N+](=O)[O-])cc1N,AC50,Cytochrome P450 3A4,31.6 µM (inconclusive)
C/C(=N\NC(=O)c1cc(Br)ccc1O)c1cccc(NC(=O)c2ccccc2F)c1,EC50,[19],3.04 µM (active)
same,EC50,Streptokinase A,> 150 µM (not active)
same,EC50,Streptococcus,74 µM (active)
same,IC50,[6],2.94 µM (active)
Cc1ccc(C(=O)N/N=C\c2ccc(-c3ccc(Cl)cc3)o2)cn1,CC50,[18],30 µM (active)
same,IC50,cells,> 50 µM (active)
same,IC50,H9c2,> 79 µM (inactive)
CC(NC(=O)c1cccc(OC2CCN(C(=O)C3CC3)CC2)c1)c1ccc(F)cc1 (configuration not stated),IC50,[3],17.4 µM (active)
N#Cc1c(/N=C/c2cc(Br)cs2)sc2c1CCC2,EC50,[7],> 120 µM (not active)
same,EC50,[8],33.6 µM (active)
same,EC50,H4,11.2 µM (active)
O=C(CSc1nnc(COc2ccccc2)n1Cc1ccco1)NCc1ccco1,IC50,[6],7.21 µM (active)
CSCC[C@@H](C(=O)NCCCCCCCCCCC(=O)N1CCN(C(=O)OC(C)(C)C)CC1)n1cc(CCO)nn1,IC50,[3],14.5 µM (active)
CC(/C=C1\SC(=S)N(NC(=O)c2ccncc2)C1=O)=C\c1ccccc1,IC50,[3],14.5 µM (active)
COC(=O)[C@@H]1C[C@@]2(O)[C@@H](O)[C@@H](O)[C@@H](O)C[C@H]2N1Cc1cc(F)ccc1F,AC50,Cytochrome P450 3A4,25.1 µM (inconclusive)
CC(=O)NNc1ccccc1,AC50,Cytochrome P450 3A4,31.6 µM (inconclusive)
C[C@@H]1CN([C@H](C)CO)C(=O)c2cccc(NC(=O)Nc3cccc4ccccc34)c2O[C@@H]1CN(C)S(=O)(=O)c1ccc(Cl)cc1,AC50,Paired box protein Pax-8,5.69 µM (active)
same,AC50,[9],43.3 µM (active)
same,AC50,[10],56.3 µM (active)
C[C@H](CO)N1C[C@H](C)[C@H](CN(C)Cc2ccc(C(F)(F)F)cc2)OCCCC[C@H](C)Oc2ccc(NS(=O)(=O)c3ccc(F)cc3)cc2C1=O,AC50,Paired box protein Pax-8,7.71 µM (active)
same,AC50,[9],53.3 µM (active)
same,AC50,[10],58.2 µM (active)
O=C(O)c1sccc1S(=O)(=O)Nc1ccc(Cl)cc1,AC50,Cytochrome P450 3A4,7.94 µM (inconclusive)
COc1cc2cc(Oc3ccc4ccc(=O)oc4c3)c(=O)oc2cc1O [DAPHNORETIN],AC50,Cytochrome P450 3A4,0.501 µM (inconclusive)
